According to US6632833B1, “2-(2-methylphenyl)-3,4-dihydro-2H-pyrrole derivatives” (Bayer Aktiengesellschaft, priority 1998, dated 2003):
Read-outs that look alike come from different tables or passages of the source.

Key:
HPLC log P determination = assay type: physicochemical; details: alkane/water partition, estimated by HPLC retention
Procedure: * log P=[…] logarithm to base 10 of the alkane/water partition coefficient, determined by HPLC analysis using water/acetonitrile as mobile phase on 125×4.0 mm Kromasil […] (5 μm); flow rate: 1.5 ml/min.

[1] = test system: caterpillars of the army-worm (Spodoptera frugiperda); assay: Spodoptera frugiperda test; assay type: in vivo; details: dipped cabbage leaves
Procedure: Spodoptera frugiperda test
(§1) To produce a suitable preparation of active compound, 1 part by weight of active compound is mixed with the stated amounts of solvent and emulsifier, and the concentrate is diluted with emusifier-containing water to the desired concentration.
Cabbage leaves (Brassica oleracea) are treated by being dipped into the preparation of active compound of the desired concentration and are populated with caterpillars of the army-worm (Spodoptera frugiperda) while the leaves are still moist.
(§2) After the desired period of time, the kill in % is determined. 100% means that all caterpillars have been killed; 0% means that none of the caterpillars have been killed.

[2] = test system: larvae of the mustard beetle (Phaedon cochleariae); assay: Phaedon larvae test; assay type: in vivo; details: dipped cabbage leaves
Procedure: Phaedon larvae test [table] To produce a suitable preparation of active compound, 1 part by weight of active compound is mixed with the stated amounts of solvent and emulsifier, and the concentrate is diluted with emusifier-containing water to the desired concentration. Cabbage leaves (Brassica oleracea) are treated by being dipped into the preparation of active compound of the desired concentration and are populated with larvae of the mustard beetle (Phaedon cochleariae) while the leaves are still moist.

[3] = test system: all stages of the greenhouse red spider mite (Tetranychus urticae); assay: Tetranychus test (OP-resistant/dip treatment); assay type: in vivo; details: after 7 days, dipped bean plants
Procedure: Tetranychus test (OP-resistant/dip treatment)
To produce a suitable preparation of active compound, 1 part by weight of active compound is mixed with the stated amounts of solvent and emulsifier, and the concentrate is diluted with emulsifier-containing water to the desired concentration.
Bean plants (Phaseolus vulgaris) which are heavily infested by all stages of the greenhouse red spider mite (Tetranychus urticae) are dipped into a preparation of the active compound of the desired concentration.
After the desired period of time, the action in % is determined. 100% means that all spider mites have been killed; 0% means that none of the spider mites have been killed.

[4] = test system: caterpillars of the cotton bollworm (Heliothis armigera); assay: Heliothis armigera test; assay type: in vivo; details: concentration of active compound 0.004%; after 6 days; dipped soybean shoots
Procedure: as §1
Soybean shoots (Glycine max) are treated by being dipped into the preparation of active compound of the desired concentration and are populated with caterpillars of the cotton bollworm (Heliothis armigera) while the leaves are still moist.
as §2

[5] = test system: caterpillars of the diamond-back moth (Plutella xylostella); assay: Plutella test; assay type: in vivo; details: concentration of active compound 0.004%; after 6 days; dipped cabbage leaves
Procedure: as §1
Cabbage leaves (Brassica oleracea) are treated by being dipped into the preparation of active compound of the desired concentration and are populated with caterpillars of the diamond-back moth (Plutella xylostella) while the leaves are still moist.
as §2

[6] = pH 2.3, read-out: HPLC log P (pH 2.3)
[7] = concentration of active compound 0.01%, after 7 days
[8] = concentration of active compound 0.004%, after 6 days

**Q.** What does the source list for `Cc1ccccc1C1=NC(c2ccc(-c3ccc(OC(F)(F)C(F)F)cc3)cc2)CC1` (stereo not drawn) [Example I-43]?
**A.** chromatographic logP (HPLC log P determination; [6]): 3.02; kill in % [1, 7]: 100%; kill in % [2, 7]: 100%; kill (action in %) ([3]; concentration of active compound 0.01%): 100%

**Q.** Which chromatographic logP (HPLC log P determination; [6]) does the source give for `Cc1ccccc1C(=O)CCC(NC(=O)OC(C)(C)C)c1ccc(-c2ccc(OC(F)(F)C(F)F)cc2)cc1` (stereo not drawn) [Example VIII-43] here?
**A.** 5.05

**Q.** For `O=C1CCC(c2ccc(-c3ccc(OC(F)(F)C(F)F)cc3)cc2)N1` (stereo not drawn) [Example XI-43], which chromatographic logP (HPLC log P determination; pH 2-3, read-out: HPLC log P (pH 2-3)) is on record?
**A.** 2.79

**Q.** What does the source list for `Cc1ccccc1C1=NC(c2ccc(-c3ccc(OC(F)(F)F)cc3)cc2)CC1` (stereo not drawn) [Example I-9]?
**A.** kill in % [4]: 100%; chromatographic logP (HPLC log P determination; neutral, HPLC, water/acetonitrile mobile phase, read-out: HPLC log P (neutral)): 6.05; kill in % [1, 8]: 100%; kill in % [2, 8]: 100%; kill (action in %) ([3]; concentration of active compound 0.004%): 98%; kill in % [5]: 100%
